{"source": "patent US7445892B2", "about": "“Method of testing anticancer agent-sensitivity of tumor cells” (Eisai Co., Ltd., priority 2000, dated 2008)", "key": {"HCT116-C9-C1": {"test_system": "HCT116-C9-C1", "test": "Gene expression analysis using GeneChip in E7070-resistant strain C9-C1", "type": "cell-based, human", "settings": "resistant strain C9-C1, 8 μM, 12 hours", "method": "E7070, or ER-35748 or ER-68487 represented by the structural formula shown below was added to the media of an E7070-susceptible strain HCT116-C9 and an E7070-resistant strain HCT116-C9-C1 at a concentration of 8 μM and the cells were cultured. Then, cells were recovered after 0, 3, 6 and 12 hours. Further, the cells were also cultured for 12 hours without adding the drug and recovered. Total RNA was extracted from these cells and subjected to the subsequent analyses. […] The stained GeneChip was scanned by using HP Argon Ion Laser Confocal Scanner (Hewlett Packard) to measure its fluorescence intensity. The fluorescence was measured at 570 nm by using an excitation light at 488 nm. The quantitative data analyses were all conducted by using GeneChip Software (Affymetrix). To quantify RNA, an average of “differences [(Perfect match hybridization signal)−(Mismatch signal)]” was obtained for each probe family. […] Two kinds of E7070-resistant strains (C9-C1 and another resistant strain (C9-C4) obtained in the same method as C9-C1) were treated with 8 μM of E7070 for 12 hours in the same manner as described above, and variations of the gene expression were analyzed by using GeneChip for the genes listed in Tables 1 and 2."}, "HCT116-C9": {"test_system": "HCT116-C9", "test": "Gene expression analysis using DNA microarray (GeneChip Hu6800)", "type": "cell-based, human", "method": "All cells were cultured in RPMI-1640 medium supplemented with 10% of fetal bovine serum, 100 units/ml of penicillin and 100 μg/ml of streptomycin at 37° C. under 5% CO2.\nE7070, or ER-35748 or ER-68487 represented by the structural formula shown below was added to the media of an E7070-susceptible strain HCT116-C9 and an E7070-resistant strain HCT116-C9-C1 at a concentration of 8 μM and the cells were cultured. Then, cells were recovered after 0, 3, 6 and 12 hours. Further, the cells were also cultured for 12 hours without adding the drug and recovered.\nTotal RNA was extracted from these cells and subjected to the subsequent analyses. The RNA extracted from the cells cultured for 12 hours with the drug and the RNA from extracted the cells cultured for 12 hours without the drug were used for the gene expression analysis using a DNA microarray described in Example 2. HCT116-C9 was a substrain isolated from HCT116 derived from human colon cancer (American Type Culture Collection, Manassas, Va., U.S.A.), and HCT116-C9-C1 was an E7070-resistant substrain obtained by culturing this HCT116-C9 in the presence of E7070 with gradually increasing the E7070 concentration.\nTotal RNA was extracted from the recovered cells by using TRIZOL Reagent (Life Technologies Oriental) according to the attached operation manual.\nEach RNA obtained in Example 1 was dissolved in 100 μl of sterilized water treated with diethyl pyrocarbonate (DEPC) and further purified by using RNeasy Column (QIAGEN), and double-stranded cDNA was synthesized by using SuperScript Choice System (Life Technologies Oriental) and a T7-d(T)24 primer.\nFirst, to 10 μg of RNA, 5 μM T7-d(T)24 primer, 1×First strand buffer, 10 mM DTT, 500 μM dNTP mix and 20 units/μl of SuperScript II Reverse Transcriptase were added and the mixture was allowed to react at 42° C. for 1 hour to synthesize single-stranded DNA. Subsequently, to the DNA, 1×Second strand buffer, 200 μM dNTP mix, 67 U/ml of DNA ligase, 270 U/ml of DNA polymerase I and 13 U/ml of RNase H were added and the mixture was allowed to react at 16° C. for 2 hours to synthesize double-stranded cDNA. Further, to the cDNA, 67 U/ml of T4 DNA polymerase I was added and the mixture was allowed to react at 16° C. for 5 minutes and then 10 μl of 0.5 M EDTA was added to terminate the reaction.\nThe obtained cDNA was purified with phenol/chloroform, and a labeling reaction with biotinylated UTP and CTP was carried out by using RNA Transcript Labeling Kit (Enzo Diagnostics) according to the attached operation manual. The reaction product was purified with Rneasy Column and heated in 200 mM Tris/acetate buffer (pH 8.1), 150 mM magnesium acetate, 50 mM potassium acetate at 94° C. for 35 minutes to obtain fragment cRNA.\nThe fragmented cRNA was hybridized with GeneChip Hu6800 (Affymetrix) in 100 mM MES, 1 M sodium salt, 20 mM EDTA and 0.01% Tween 20 at 45° C. for 16 hours. After the hybridization, the GeneChip was washed and stained according to the protocol EukGE-WS2 attached to Affymetrix Fluidics Station. For the staining, streptavidin-phycoerythrin and biotinylated goat anti-streptavidin antibody were used. The stained GeneChip was scanned by using HP Argon Ion Laser Confocal Scanner (Hewlett Packard) to measure its fluorescence intensity. The fluorescence was measured at 570 nm by using an excitation light at 488 nm.\nThe quantitative data analyses were all conducted by using GeneChip Software (Affymetrix). To quantify RNA, an average of “differences [(Perfect match hybridization signal)−(Mismatch signal)]” was obtained for each probe family.\nE7070, or ER-35748 or ER-68487 was added to a medium for HCT116-C9 at a concentration of 8 μM and culture was performed. The results of analysis of RNA extracted from the cells at 12 hours by using GeneChip were compared with the results of RNA analysis for HCT116-C9 cells obtained in the same manner except for not adding the drug. […]"}, "[1]": {"settings": "HCT116-C9, 8 μM, 12 hours, compared with cells without drug, change of 1.8 times or more counted"}}}
{"smiles": "NS(=O)(=O)c1ccc(S(=O)(=O)Nc2cccc3c(Cl)c[nH]c23)cc1", "note": "[E7070, N-(3-chloro-7-indolyl)-1,4-benzenedisulfonamide]", "values": [{"measurement": "variations of the gene expression for the genes listed in Tables 1 and 2", "setting": "HCT116-C9-C1", "result": "no gene that increased or decreased 1.8 times or more was observed"}, {"measurement": "enhancement of expression of the genes listed in Table 3", "setting": "HCT116-C9; HCT116-C9, 8 μM for 12 hours", "result": "≥ 1.8", "unit": "times"}, {"measurement": "inhibition of expression of the genes listed in Table 4", "setting": "HCT116-C9; HCT116-C9, 8 μM for 12 hours", "result": "≥ 1.8", "unit": "times"}, {"measurement": "expression levels of the genes listed in Table 1", "setting": "HCT116-C9; [1]", "result": "increased"}, {"measurement": "expression levels of the genes listed in Table 2", "setting": "HCT116-C9; [1]", "result": "decreased"}]}
